From paper PMC10384408, “Anticancer Tungstenocenes with a Diverse Set of (O,O–), (O,S–) and (O,N–) Chelates—A Detailed Biological Study Using an Improved Evaluation via 3D Spheroid Models” (Pharmaceutics, 2023)

Key:
[1] = tested on: CH1/PA-1 (ovarian teratocarcinoma) cells; assay: MTT cytotoxicity assay, CH1/PA-1 monolayer; assay type: cell-based, human; settings: exposure time 96 h, mean ± SD
Experimental: (§1) CH1/PA-1 (ovarian teratocarcinoma), SW480 (colon carcinoma) and A549 (non-small cell lung cancer) cells were maintained as described in the reference. IMR-90 human fetal lung fibroblasts (from the European Collection of Authenticated Cell Cultures, Porton Down, Salisbury, UK) were cultured in Stable Cell^TM DMEM/F12 supplemented with 0.01 mg/mL human recombinant insulin (both purchased from Sigma-Aldrich) and 10% fetal bovine serum (FBS, BioWest, Nuaillé, France). Human colon carcinoma cell lines HCT116 and HT29 (both kindly provided by the Institute of Cancer Research, Department of Medicine I, Medical University of Vienna, Austria) were cultured in McCoy’s 5a medium supplemented with 4 mM L-glutamine (both purchased from Sigma-Aldrich) and 10% FBS. MCF-7 human breast adenocarcinoma cells (kindly provided by M. Ogris, Department of Pharmaceutical Sciences, University of Vienna, Austria) were maintained in DMEM (high glucose) supplemented with 4 mM L-glutamine, 0.1 mg/mL human insulin (all purchased from Sigma-Aldrich) and 10% FBS. All cell lines were grown as monolayers in 75 cm^2 culture flasks (CytoOne, Starlab, Hamburg, Germany) at 37 °C in a humidified atmosphere containing 5% CO2.
(§2) Exponentially growing cells were plated into 96-well microculture plates (CytoOne, tissue culture treated, Starlab, Hamburg, Germany) in densities of 1 × 10^3 CH1/PA-1, 2 × 10^3 SW480, 3 × 10^3 A549 and 7 × 10^3 IMR-90 cells per well (each in 100 µL). After a 24 h preincubation, drugs were added in serial dilution to give a final volume of 200 µL/well and exposed for 96 h. At the end of the exposure, the drug solutions were replaced by 100 µL RPMI 1640/MTT mixture (7:1 ratio). MTT (3-(4,5-dimethylthiazol-2-yl)-2,5-diphenyl-2H-tetrazolium bromide), (Acros Organics, Geel, Belgium) solution was prepared in phosphate-buffered saline (5 mg/mL) and mixed with RPMI1640 medium supplemented with 4 mM L-glutamine (both from Sigma-Aldrich) and 10% FBS. After 4 h incubation, the formazan crystals were solubilized in 150 µL of DMSO per well. Absorbance was measured at 550 nm (and at 690 nm as a reference) with a microplate reader (ELx808, BioTek, Winoosky, VT, USA) and Gen5^TM 3.08 software (BioTek). The 50% inhibitory concentrations (IC50) relative to untreated controls were interpolated from concentration-effect curves. At least three biologically and technically independent experiments were performed.

[2] = tested on: A549 (non-small cell lung carcinoma) cells; assay: MTT cytotoxicity assay, A549 monolayer; assay type: cell-based, human; settings: exposure time 96 h, mean ± SD
Experimental: as §1, §2

[3] = tested on: MCF-7 cells; assay: Annexin V-FITC/PI apoptosis assay, MCF-7; settings: MCF-7, 24 h; for ∑apoptotic cells [%]: sum of early and late
[4] = tested on: SW480 (colon carcinoma) cells; assay: MTT cytotoxicity assay, SW480 monolayer; assay type: cell-based, human; settings: exposure time 96 h, mean ± SD
Experimental: as §1, §2

[5] = Aqueous stability by UV/Vis in PBS; assay type: physicochemical; settings: 24 h, 293 K, 1 vol% DMSO
Experimental: Stock solutions in DMSO of compounds 1–10 were utilized to determine the solubility in PBS by adding 1 vol% of the stock solution to a suitable amount of PBS. […] UV/Vis data were recorded on a Perkin Elmer Lambda 650 UV/Vis Spectrophotometer with a Peltier element for temperature control.
In order to examine the stability of the compounds in aqueous solution, UV/Vis measurements were performed every hour during 24 h at 293 K. Solutions of compounds 1–10 were prepared in PBS (10%) from a previously prepared DMSO stock solution of each compound. The total concentration of DMSO was 1 vol% for the final complex solutions of 1–10.

[6] = tested on: IMR-90 human lung fibroblasts; assay: MTT cytotoxicity assay, IMR-90 fibroblasts; assay type: cell-based; settings: exposure time 96 h, mean ± SD
Experimental: as §1, §2

[7] = tested on: HT29 cells; assay: Annexin V-FITC/PI apoptosis assay, HT29; settings: HT29, 24 h; for ∑apoptotic cells [%]: sum of early and late
[8] = tested on: HT29 cells; assay: Resazurin assay, HT29 2D monolayer; assay type: cell-based, human; settings: 96 h
Experimental: as §1
(§3) For the resazurin assay in monolayer cultures, cells were seeded into 96-well microculture plates (CytoOne, tissue culture treated, Starlab, Hamburg, Germany) in densities of 2 × 10^3 HCT116, 2 × 10^3 HT29 and 4 × 10^3 MCF-7 cells per well (each in 100 µL). For tests in 3D cultures, spheroids were grown as described above. After 24 h (for monolayers) or 4 days (for spheroids) the test compounds in the appropriate medium were added in serial dilution to the plates to obtain a total volume of 200 µL/well. Wells without cells, containing medium and resazurin (Alfa Aesar, Thermo Fisher, Kandel, Germany) solution were used as blanks. After 96 h exposure 20 µL of the resazurin solution (440 µM) were added to each well, followed by a 4 h (2D) or 12 h (3D) incubation period. Resorufin fluorescence was quantified at 530 nm (and a reference wavelength of 620 nm) by using a microplate reader (Synergy HT, BioTek) with Gen5^TM 3.10 software (BioTek).

[9] = tested on: HCT116, HT29 and MCF-7 cell lines; assay: ROS detection (DCFH-DA assay); assay type: cell-based, human; settings: 2, 20, 100 and 200 µM, 2 h
Experimental: Reactive oxygen species (ROS) generation was measured by means of the DCFH-DA assay. […] On the following day, cells were washed with 200 µL Hanks’ balanced salt solution (HBSS, Sigma-Aldrich, containing 1% FBS) and stained with 100 µL of 25 µM DCFH-DA (2′,7′-dichlorofluorescein diacetate, Sigma-Aldrich) in HBSS (containing 1% FBS) for 45 min at 37 °C in the dark. After the incubation period, cells were washed with 200 µL HBSS (1% FBS) and loaded with compounds at concentrations of 2 µM, 20 µM, 100 µM and 200 µM in 200 µL phenol-red-free MEM (1% FBS) in triplicates. As positive controls, cells were treated with 200 µM and 400 µM tert-butylhydroperoxide (Sigma-Aldrich). Wells containing only phenol-red-free medium with 1% FBS were used as blanks, and non-drug treated, cell containing wells as reference values. Fluorescence (excitation: 485/20 nm, emission: 516/20 nm) was recorded in 10 min intervals with the Synergy HT reader (BioTek) over 2 h.

[10] = tested on: HCT116 cells; assay: Resazurin assay, HCT116 2D monolayer; assay type: cell-based, human; settings: 96 h
Experimental: as §1, §3

F[P-](F)(F)(F)(F)F.O=c1c([O-])c(-c2ccc(Cl)cc2)oc2ccccc12.[W+4].c1cc[cH-]c1.c1cc[cH-]c1 [Compound 3, Bis(η^5-cyclopentadienyl)[2-(4-chlorophenyl)-3-(oxo-κO)-4(H)-chromen-4-oato-κO]tungsten(IV) hexafluorophosphate]
IC50 [1]: 2.7 ± 0.4 µM
IC50 [2]: 19 ± 3 µM
early apoptotic cells [%] AV+ / PI- ([3]; 2 µM): 1.4 ± 0.5%
late apoptotic cells [%] AV+ / PI+ ([3]; 2 µM): 4.3 ± 1.5%
necrotic cells [%] AV- / PI+ ([3]; 2 µM): 2.5 ± 0.6%
viable cells [%] AV- / PI- ([3]; 2 µM): 91.8 ± 1.9%
∑apoptotic cells [%] ([3]; 2 µM): 5.6%
early apoptotic cells [%] AV+ / PI- ([3]; 10 µM): 1.4 ± 0.3%
late apoptotic cells [%] AV+ / PI+ ([3]; 10 µM): 7.7± 4.4%
necrotic cells [%] AV- / PI+ ([3]; 10 µM): 4.1 ± 1.8%
viable cells [%] AV- / PI- ([3]; 10 µM): 86.9 ± 5.9%
∑apoptotic cells [%] ([3]; 10 µM): 9.1%
early apoptotic cells [%] AV+ / PI- ([3]; 20 µM): 1.5 ± 0.6%
late apoptotic cells [%] AV+ / PI+ ([3]; 20 µM): 11.4 ± 0.7%
necrotic cells [%] AV- / PI+ ([3]; 20 µM): 8.7 ± 0.3%
viable cells [%] AV- / PI- ([3]; 20 µM): 78.5 ± 1.0%
∑apoptotic cells [%] ([3]; 20 µM): 12.9%
early apoptotic cells [%] AV+ / PI- ([3]; 50 µM): 1.3 ± 0.5%
late apoptotic cells [%] AV+ / PI+ ([3]; 50 µM): 16.2 ± 2.5%
necrotic cells [%] AV- / PI+ ([3]; 50 µM): 25 ± 0.9%
viable cells [%] AV- / PI- ([3]; 50 µM): 57.7 ± 2.2%
IC50 [4]: 5.4 ± 1.1 µM
precipitation in PBS [5]: slowly precipitate out of the solution over time
IC50 [6]: 38.2 ± 0.4 µM
early apoptotic cells [%] AV+ / PI- ([7]; 2 µM): 4.6 ± 4.1%
late apoptotic cells [%] AV+ / PI+ ([7]; 2 µM): 7.2 ± 3.8%
necrotic cells [%] AV- / PI+ ([7]; 2 µM): 5.1 ± 4.2%
viable cells [%] AV- / PI- ([7]; 2 µM): 83.0 ± 3.8%
∑apoptotic cells [%] ([7]; 2 µM): 11.8%
early apoptotic cells [%] AV+ / PI- ([7]; 20 µM): 8.6 ± 2.5%
late apoptotic cells [%] AV+ / PI+ ([7]; 20 µM): 11.1 ± 1.0%
necrotic cells [%] AV- / PI+ ([7]; 20 µM): 5.4 ± 1.2%
viable cells [%] AV- / PI- ([7]; 20 µM): 74.9 ± 3.3%
∑apoptotic cells [%] ([7]; 20 µM): 19.7%
early apoptotic cells [%] AV+ / PI- ([7]; 200 µM): 0.8 ± 0.5%
late apoptotic cells [%] AV+ / PI+ ([7]; 200 µM): 82.2 ± 4.1%
necrotic cells [%] AV- / PI+ ([7]; 200 µM): 14.9 ± 2.8%
viable cells [%] AV- / PI- ([7]; 200 µM): 2.2 ± 1.3%
IC50 [8]: 17 ± 4 µM
intracellular ROS levels [9]: Pronounced elevation of ROS levels
IC50 [10]: 9.2 ± 1.4 µM

F[P-](F)(F)(F)(F)F.[O-]c1c(-c2ccc(Cl)cc2)oc2ccccc2c1=S.[W+4].c1cc[cH-]c1.c1cc[cH-]c1 [Compound 4, Bis(η^5-cyclopentadienyl)[2-(4-chlorophenyl)-3-(oxo-κO)-4(H)-chromen-4-thionato-κS]tungsten(IV) hexafluorophosphate]
IC50 [1]: 1.6 ± 0.5 µM
IC50 [2]: 6.3 ± 0.5 µM
early apoptotic cells [%] AV+ / PI- ([3]; 2 µM): 1.0 ± 0.8%
late apoptotic cells [%] AV+ / PI+ ([3]; 2 µM): 3.4 ± 1.2%
necrotic cells [%] AV- / PI+ ([3]; 2 µM): 1.8 ± 0.0%
viable cells [%] AV- / PI- ([3]; 2 µM): 93.9 ± 2.1%
∑apoptotic cells [%] ([3]; 2 µM): 4.4%
early apoptotic cells [%] AV+ / PI- ([3]; 10 µM): 1.2 ± 0.5%
late apoptotic cells [%] AV+ / PI+ ([3]; 10 µM): 12.0 ± 2.0%
necrotic cells [%] AV- / PI+ ([3]; 10 µM): 11.7 ± 4.7%
viable cells [%] AV- / PI- ([3]; 10 µM): 75.2 ± 2.2%
∑apoptotic cells [%] ([3]; 10 µM): 13.2%
early apoptotic cells [%] AV+ / PI- ([3]; 20 µM): 1.0 ± 0.4%
late apoptotic cells [%] AV+ / PI+ ([3]; 20 µM): 15.1 ± 3.3%
necrotic cells [%] AV- / PI+ ([3]; 20 µM): 33.8 ± 14.5%
viable cells [%] AV- / PI- ([3]; 20 µM): 50.2 ± 10.8%
early apoptotic cells [%] AV+ / PI- ([3]; 50 µM): 0.0 ± 0.0%
late apoptotic cells [%] AV+ / PI+ ([3]; 50 µM): 43.4 ± 3.7%
necrotic cells [%] AV- / PI+ ([3]; 50 µM): 51.5 ± 10.3%
viable cells [%] AV- / PI- ([3]; 50 µM): 5.0 ± 6.6%
∑apoptotic cells [%] ([3]; 50 µM): 43.4%
IC50 [4]: 2.4 ± 0.5 µM
precipitation in PBS [5]: slowly precipitate out of the solution over time
IC50 [6]: 11 ± 2 µM
early apoptotic cells [%] AV+ / PI- ([7]; 2 µM): 3.7 ± 3.2%
late apoptotic cells [%] AV+ / PI+ ([7]; 2 µM): 4.8 ± 1.3%
necrotic cells [%] AV- / PI+ ([7]; 2 µM): 5.4 ± 5.0%
viable cells [%] AV- / PI- ([7]; 2 µM): 86.2 ± 3.1%
∑apoptotic cells [%] ([7]; 2 µM): 8.5%
early apoptotic cells [%] AV+ / PI- ([7]; 20 µM): 16.8 ± 5.2%
late apoptotic cells [%] AV+ / PI+ ([7]; 20 µM): 19.5 ± 2.0%
necrotic cells [%] AV- / PI+ ([7]; 20 µM): 13.3 ± 5.1%
viable cells [%] AV- / PI- ([7]; 20 µM): 50.4 ± 4.1%
IC50 [8]: 5.5 ± 1 µM
intracellular ROS levels [9]: concentration-dependent anti-oxidative properties
IC50 [10]: 6 ± 0.9 µM

CCc1occc(=S)c1[O-].F[P-](F)(F)(F)(F)F.[W+4].c1cc[cH-]c1.c1cc[cH-]c1 [Compound 10, Bis(η^5-cyclopentadienyl)[2-ethyl-3-(oxo-κO)-4-(1H)-pyran-4-thionato-κS] tungsten(IV) hexafluorophosphate]
IC50 [1]: 21 ± 1 µM
IC50 [2]: 53 ± 8 µM
early apoptotic cells [%] AV+ / PI- ([3]; 200 µM): 5.5 ± 3.2%
late apoptotic cells [%] AV+ / PI+ ([3]; 200 µM): 46.3 ± 3.2%
necrotic cells [%] AV- / PI+ ([3]; 200 µM): 32.4 ± 12.3%
viable cells [%] AV- / PI- ([3]; 200 µM): 15.7 ± 6.0%
IC50 [4]: 13 ± 1 µM
precipitation in PBS [5]: slowly precipitate out of the solution over time
IC50 [6]: 114 ± 33 µM
early apoptotic cells [%] AV+ / PI- ([7]; 200 µM): 3.1 ± 2.8%
late apoptotic cells [%] AV+ / PI+ ([7]; 200 µM): 5.1 ± 5.2%
necrotic cells [%] AV- / PI+ ([7]; 200 µM): 2.3 ± 0.9%
viable cells [%] AV- / PI- ([7]; 200 µM): 89.5 ± 8.5%
∑apoptotic cells [%] ([7]; 200 µM): 8.2%
IC50 [8]: 54 ± 2 µM
intracellular ROS levels [9]: relevant ROS generation
IC50 [10]: 42 ± 3 µM
